For data set [1], the system named is Cryptococcus neoformans. Nature of the data set: In vivo anti-Cryptococcus activity in Galleria mellonella model (C. neoformans). As to conditions: dose 2 mg·kg-1. As for the experimental part: (§1) This model also constitutes a screening model and a good alternative to the traditional studies on murine models for the evaluation of the activity of antifungal molecules. The AmB prodrug of the invention (Compound 1) was evaluated for its antifungal efficacy against Cryptococcus neoformans and Cr. gattii. […] In the absence of treatment, all larvae died after 6 days and 5 days, respectively. For Cryptococcus neoformans, at a dose of 2 mg·kg-1, amphotericin B led to 50% survival and its prodrug was also effective with a percentage survival of 30% at an equivalent dose.

Another data set deals with Galleria mellonella. Nature of the data set: Toxicity on the Galleria mellonella model. It counts as in vivo. The following applies: uninfected larvae, dose 2 mg·kg-1. Here is the method: The larval model represents a rapid and practical tool for assessing the intrinsic toxicity of an active substance. See Le Pape et al, 2019, Int J Infect Dis. 2019 April; 81:85-90 for more details concerning the model. The larvae were incubated with AmB, AmB prodrug (Compound 1) and vehicle. At the dose of 2 mg·kg-1, AmB was very toxic leading to a 40% survival of the treated group. In comparison, at an equivalent dose, its prodrug was much less toxic with a percentage survival of 80%.

For data set [2], the system named is Cryptococcus neoformans. The experiment in a line: Antifungal activity in vitro. It counts as cell-based. Here is the method:
(§2) Half maximal inhibitory concentration (IC50) required to inhibit 50% of the in vitro cell growth or viability were determined with broth microdilution method according to the European committee on antimicrobial susceptibility testing recommendations (protocols E.DEF 7.3.1 for Candida spp.) and according to a certified internal procedure to the laboratory IICiMed (for Leishmania spp.) (Le Pape, et al. Acta Parasitologica 2002, 47, 79-81).
(§3) Growth or cell viability was performed on flat-bottomed microplate, firstly appreciated by visual reading and always confirmed using a Bio-Rad iMark microplate absorbance reader to measure the absorbance of the plate at 595 nm or using a resazurin salt cell viability assay with a Packard fluorocount microplate reader BF10000 with halogen light source to measure the fluorescence at 590 nm after excitation at 530 nm. Results represent the mean (±the standard error of the mean SEM if available) calculated from at least two independent experiments performed each in triplicate on one or several strains. The values are expressed with the corresponding pathogens and are represented in μM.

The subject of another data set is Cryptococcus gattii. The experiment in a line: Antifungal activity in vitro. It counts as cell-based. Here is the method: as §2, §3
In data set [3] the test system is Leishmania major (promastigote). Nature of the data set: Antiparasitic activity in vitro (promastigote). It is filed as cell-based. As to conditions: mean ± SEM. Here is the method:
(§4) Half maximal inhibitory concentration (IC50) required to inhibit 50% of the in vitro cell growth or viability were determined with broth microdilution method according to the European committee on antimicrobial susceptibility testing recommendations (protocols E.DEF 7.3.1 for Candida spp.) and according to a certified internal procedure to the laboratory IICiMed (for Leishmania spp.) (Le Pape, et al. Acta Parasitologica 2002, 47, 79-81). […]
as §3, with “The values are expressed with the corresponding pathogens and are represented in μM.” left out

The subject of a further data set is Cr. gattii. The experiment in a line: In vivo anti-Cryptococcus activity in Galleria mellonella model (Cr. gattii). As for the experimental part: as §1
In the case of Cr. gattii, amphotericin B and the prodrug led to 30% and 20% survival respectively.

For data set [4], the system named is Candida albicans (blastospores). The experiment in a line: Antifungal activity in vitro, broth microdilution (blastospores). The following applies: mean ± SEM. It is filed as cell-based. Here is the method:
as §4
as §3, with “The values are expressed with the corresponding pathogens and are represented in μM.” left out
A general note: Broth dilution looks for growth in wells or tubes with falling amounts of substance.

Data set [5] can be described thus: Human cells cytotoxicity, hPBMC. It counts as cell-based. The following applies: human peripheral blood mononuclear cells (hPBMC); human PBMC.
The test system of data set [6] is Leishmania major (amastigote). Nature of the data set: Antiparasitic activity in vitro (intracellular amastigote). It is filed as cell-based. As to conditions: intracellular amastigotes. Here is the method:
as §4
as §3, with “The values are expressed with the corresponding pathogens and are represented in μM.” left out

The nature of data set [7]: Aqueous stability in the absence of enzyme. It counts as physicochemical. The following applies: for aqueous stability (in words): aqueous medium/buffer, 37° C., absence of the enzyme. As for the experimental part:
Enzymatic Release and Aqueous Stability In vitro enzymatic hydrolysis was carried out with commercial β-N-acetylhexosaminidase from Canavalia ensiformis E.C. 3.2.1.52 (22.8 units·mg^−1 protein, suspension in 2.5 M ammonium sulfate, pH 7.0). Using a VWR® Cooling Thermal Shake Touch and monitoring by analytical LC. Prodrug 1 was incubated with the enzyme according to the table below: […]

For data set [8], the system named is C. albicans blastoconidia. The experiment in a line: Mouse model of C. albicans blastoconidia infection. It is filed as in vivo, mice. The following applies: 1 mg/kg i.p. once daily for 3 days, listed as AmB prodrug. As for the experimental part: Mice were immunosuppressed by subcutaneous injection of 30 mg/kg prednisolone one day before challenge. On day 0, mice were infected intravenously C. albicans blastoconidia. One hour after infection, mice were treated intraperitoneally once daily with 1 mg/kg body weight of Fungizone®, Ambisome® and AmB prodrug (Compound 1, FIG. 1A) for 3 consecutive days. The control group received sterile distillated water (vehicle). Survival was monitored for 14 days post inoculation. Differences in cohorts were analyzed by the log-rank test. On day 14, all mice were euthanized and their kidneys were excised and weighed. Tissues were homogenized and serially diluted 10- to 1000-fold in sterile saline, then plated onto Sabouraud dextrose agar and incubated for 48 h to determine the number of CFUs. Tissue fungal burden was expressed as average log CFUs/gram of tissue. Differences in mean CFUs in kidneys were compared with the vehicle control using a one-way ANOVA with a post-hoc Tukey test. A P value of <0.05 was considered statistically significant.

A further data set deals with HeLa cells. Nature of the data set: Human cells cytotoxicity, HeLa. It counts as cell-based. As to conditions: for IC50: HeLa cell line. Here is the method: as §2
(§5) The different strains, isolates and cell lines used are listed below: • Candida albicans clinical strain (IICiMed number CAAL93) • Candida albicans clinical strain (IICiMed number CAAL121) • Candida albicans reference strain SC5314 (IICiMed number CAAL146) • Leishmania major reference isolate MHOM/IL/81/BNI (IICiMed number LEMA1) • A549 cell line reference ATCC® CCL-185 (carcinoma epithelial cells from lung) • HeLa cell line reference
as §3

A short description of data set [9]: Human cells cytotoxicity, HeLa. It is filed as cell-based. The following applies: human, HeLa cells; HeLa cell line. As for the experimental part: as §2, §5, §3
The subject of data set [10] is Candida albicans (filamented yeasts). Nature of the data set: Antifungal activity in vitro, broth microdilution (filamented yeasts). It is filed as cell-based. The following applies: mean ± SEM. As for the experimental part: as §4
as §3, with “The values are expressed with the corresponding pathogens and are represented in μM.” left out

The subject of the next data set is A549. The experiment in a line: Human cells cytotoxicity, A549. It counts as cell-based. The following applies: pneumocyte line A549. Here is the method:
as §4
as §3, with “The values are expressed with the corresponding pathogens and are represented in μM.” left out

A short description of data set [11]: Human cells cytotoxicity, A549. The following applies: human, A549 cells (ATCC CCL-185, lung carcinoma epithelial cells), pneumocyte line A549. It is filed as cell-based. Here is the method:
as §4
as §3, with “The values are expressed with the corresponding pathogens and are represented in μM.” left out

Entries after “also recorded” stand apart in the source; their conditions may differ. Read-outs that look alike come from different tables or passages of the source.

With `CC(=O)N[C@H]1[C@H](Oc2ccc(COC(=O)N[C@@H]3[C@H](O)[C@H](O[C@H]4/C=C/C=C/C=C/C=C/C=C/C=C/C=C/[C@H](C)[C@@H](O)[C@@H](C)[C@H](C)OC(=O)C[C@H](O)C[C@H](O)CC[C@@H](O)[C@H](O)C[C@H](O)C[C@]5(O)C[C@H](O)[C@@H](C(=O)O)[C@H](C4)O5)O[C@H](C)[C@H]3O)cc2[N+](=O)[O-])O[C@H](CO)[C@@H](O)[C@@H]1O` [Compound 1], the “percentage survival, larvae infected with Cryptococcus neoformans” value in the data set on Cryptococcus neoformans [1] stood at 30%. Besides, the “survival of the treated group (toxicity)” value with Galleria mellonella is on record as 80%. Moreover, the IC50 (in general, the concentration that gives 50% inhibition) in the data set on Cryptococcus neoformans [2] (Cryptococcus neoformans) was 250 nM; in the data set on Cryptococcus gattii (Cryptococcus gattii), 600 nM; in data set [3] (Leishmania major) it was 270 ± 60 nM; in data set [4] (Candida albicans), 430 ± 20 nM; in data set [5] it was above 50 µM; in [6] (Leishmania major), below 100 nM. The 50% inhibitory concentration (IC50) is above 100 µM in data set [9], 420 ± 10 nM in data set [10] (Candida albicans), above 100 µM in the data set with A549 and above 50 µM in data set [11]. In the data set on Cr. gattii, the “survival, larvae infected with Cr. gattii” value was 20%. For the same molecule, the “aqueous stability (in words)” value was “stable” in [7] (listed as AmB prodrug), “stable” in data set [7] (listed as prodrug) and “good aqueous stability” in [7] (listed as prodrug 1). In [7] (aqueous solution without enzyme, aqueous, pH 7.4, 37° C., read-out: t1/2 aq, pH 7.4, 37° C.), the half-life was above 1440 min. In addition, the “fungal burden of the kidney” value in data set [8] (day 14, vs control group) was “significantly reduction of the burden; also recorded: significant decrease in the kidney fungal load”. In addition, in data set [8] (immunosuppressed mice, 14 days monitoring, vs vehicle, 1 mg/kg), the survival result is reported as “statically improved survival; also recorded: significant improvement in survival”. Moreover, the “toxicity on HELA cells (in words)” value in the data set with HeLa cells was “does not exhibit any significant toxicity”.

As to `C[C@@H]1[C@H](O)[C@@H](C)/C=C/C=C/C=C/C=C/C=C/C=C/C=C/[C@H](O[C@@H]2O[C@H](C)[C@@H](O)[C@H](N)[C@@H]2O)C[C@@H]2O[C@](O)(C[C@@H](O)C[C@@H](O)[C@H](O)CC[C@@H](O)C[C@@H](O)CC(=O)O[C@H]1C)C[C@H](O)[C@H]2C(=O)O` [Amphotericin B, amphotericin B, reference compound], in the data set on Cryptococcus neoformans [1], the “percentage survival, larvae infected with Cryptococcus neoformans” value is 50%. The “survival of the treated group (toxicity)” value with Galleria mellonella was 40%. Besides, the IC50 was 30 nM in the data set with Cryptococcus neoformans [2]; 40 nM in the data set with Cryptococcus gattii; 310 ± 20 nM in data set [3]; 360 ± 40 nM in data set [4]; below 100 nM in data set [6]; 23.29 ± 0.11 µM in the data set with HeLa cells. The IC50 in the data set on HeLa cells (listed as AmB) was around 23 µM; in data set [10], 310 ± 10 nM. Besides, the “survival, larvae infected with Cr. gattii” value with Cr. gattii was found to be 30%.

For the origin of these results see patent publication US20230218652A1, “ANTIFUNGAL PRODRUGS” (CENTRE NATIONAL DE LA RECHERCHE SCIENTIFIQUE, priority 2020, published 2023).
